Among the data in patent publication US9133157B2, “HIV protease inhibitors” (Merck Canada Inc., priority 2011, dated 2015) are IC50 values, retold here.

For this test, the target named is WT HIV-1 protease (Human immunodeficiency virus type 1 group M subtype B (isolate HXB2) (HIV-1), UniProt P04585). As to the kind of experiment: Assay for inhibition of microbial expressed HIV protease (Procedure A, peptide substrate, HPLC fluorescence detection). The format is biochemical. The following applies: WT HIV-1 protease 10 pM, substrate 400 micromolar, pH 5.5, 30 min preincubation, 1 hour at 30° C.; read-out: Enzyme inhibition IC50. In outline: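 E. coli-expressed enzyme preincubated 30 min at room temperature with compound in 50 mM sodium acetate pH 5.5, 100 mM NaCl, 0.1% BSA. Reaction ran 1 h at 30° C with 400 micromolar Val-Ser-Gln-Asn-(betanaphthyl)Ala-Pro-Ile-Val substrate and 10 picomolar protease. After phosphoric acid quench, product was measured by C18 HPLC with fluorescence (ex 270/em 330 nm).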
Regarding `COC(=O)N[C@H](C(=O)NCc1ccc([C@@H](CO)N(CC2CC(F)(F)C2)S(=O)(=O)c2ccc(N)cc2)s1)C(c1ccccc1)c1ccccc1` [Example 11], the IC50 (as a rule, the concentration at which inhibition is half-maximal) came to 1.61 nM.
In the case of `COC(=O)N[C@H](C(=O)N[C@H](c1ccc([C@@H](CO)N(CC2CC(F)(F)C2)S(=O)(=O)c2ccc(N)cc2)s1)C(F)(F)F)C(c1ccccc1)c1ccccc1` [Example 84, N-[(1S)-1-{5-[(1R)-1-{[(4-aminophenyl)sulfonyl][(3,3-difluorocyclobutyl)methyl]amino}-2-hydroxyethyl]thiophen-2-yl}-2,2,2-trifluoroethyl]-Nα-(methoxycarbonyl)-β-phenyl-L-phenylalaninamide] it was 0.75 nM; in that of `COC(=O)N[C@H](C(=O)N[C@H](c1ccc([C@@H](CO)N(CCC(C)(C)C)S(=O)(=O)c2ccc(-c3ccno3)cc2)s1)C(F)(F)F)C(c1ccccc1)c1ccccc1` [Example 114, N-{(1S)-1-[5-((1R)-1-{(3,3-dimethylbutyl)[(4-isoxazol-5-ylphenyl)sulfonyl]amino}-2-hydroxyethyl)-2-thienyl]-2,2,2-trifluoroethyl}-Nα-(methoxycarbonyl)-β-phenyl-L-phenylalaninamide], 0.77 nM.
In the case of `COC(=O)N[C@H](C(=O)NCc1ccc([C@@H](CO)N(Cc2cc3cccnc3[nH]2)S(=O)(=O)c2ccc(N)cc2)s1)C(c1ccccc1)c1ccccc1` [Example 13] it was 3.9 nM; in that of `COC(=O)N[C@H](C(=O)NCc1ccc([C@@H](CO)N(Cc2cnon2)S(=O)(=O)c2ccc(N)cc2)s1)C(c1ccccc1)c1ccccc1` [Example 19], 33.8 nM.
The figure for `COC(=O)N[C@H](C(=O)N[C@H](c1ccc([C@@H](CO)N(C(C)C)S(=O)(=O)c2ccc3[nH]ccc3c2)s1)C(F)(F)F)C(c1ccccc1)c1ccccc1` [Example 78, Nα-(methoxycarbonyl)-β-phenyl-N-[(1S)-2,2,2-trifluoro-1-(5-{(1R)-2-hydroxy-1-[(1H-indol-5-ylsulfonyl)(propan-2-yl)amino]ethyl}thiophen-2-yl)ethyl]-L-phenylalaninamide] is 66.1 nM; for `COC(=O)N[C@H](C(=O)NCc1ccc(C(CO)N(C(C)C)S(=O)(=O)c2ccc3scnc3c2)s1)C(c1ccccc1)c1ccccc1` (some centres unmarked) [Example 21] it is 62.4 nM.
For the molecule `COC(=O)N[C@H](C(=O)N[C@H](c1ccc([C@@H](CO)N(CCC(C)(C)C)S(=O)(=O)c2cn3ccnc3cn2)s1)C(F)(F)F)C(c1ccccc1)c1ccccc1` [Example 99, N-[(1S)-1-(5-{(1R)-1-[(3,3-dimethylbutyl)(imidazo[1,2-a]pyrazin-6-ylsulfonyl)amino]-2-hydroxyethyl}thiophen-2-yl)-2,2,2-trifluoroethyl]-Nα-(methoxycarbonyl)-β-phenyl-L-phenylalaninamide], the IC50 was 3.39 nM.
Take `COC(=O)N[C@H](C(=O)NCc1ccc([C@@H](CO)N(CC(C)C)S(=O)(=O)c2cccc(CC(C)(C)O)c2)s1)C(c1ccccc1)c1ccccc1` [Example 14]: the IC50 was found to be 4.1 nM.
The figure for `COC(=O)N[C@H](C(=O)NCc1ccc([C@@H](CO)N(Cc2cc3ccccc3[nH]2)S(=O)(=O)c2ccc3scnc3c2)s1)C(c1ccccc1)c1ccccc1` [Example 25] is 7.99 nM.
Turning to `COC(=O)N[C@H](C(=O)N[C@H](c1ccc([C@@H](CO)N(CCC(C)(C)C)S(=O)(=O)c2cc3ccccc3s2)s1)C(F)(F)F)C(c1ccccc1)c1ccccc1` [Example 95, N-[(1S)-1-(5-{(1R)-1-[(1-benzothiophen-2-ylsulfonyl)(3,3-dimethylbutyl)amino]-2-hydroxyethyl}thiophen-2-yl)-2,2,2-trifluoroethyl]-Nα-(methoxycarbonyl)-β-phenyl-L-phenylalaninamide], the IC50 was found to be 6.95 nM.
In the case of “N-{(1S)-1-[5-((1R)-1-{(3,3-dimethylbutyl)[4-(1-methyl-1H-pyrazol-4-ylphenylsulfonyl]amino}-2-hydroxyethyl)-2-thienyl]-2,2,2-trifluoroethyl}-Nα-(methoxycarbonyl)-β-phenyl-L-phenylalaninamide [Example 115]” it was 20.9 nM.
Take `CC(C)CN(C(CO)c1ccc(CNC(=O)C(NC(=O)c2ccccc2)C(c2ccccc2)c2cnc[nH]2)s1)S(=O)(=O)c1ccc2ncsc2c1` (centres unmarked) [Example 132, N-[1-[[5-[1-(1,3-benzothiazol-6-ylsulfonyl(isobutyl)amino)-2-hydroxy-ethyl]-2-thienyl]methylcarbamoyl]-2-(1H-imidazol-5-yl)-2-phenyl-ethyl]benzamide]: the IC50 turned out to be 216 nM.
The figure for `COC(=O)N[C@H](C(=O)N[C@H](c1ccc([C@@H](CO)N(CCC(C)(C)C)S(=O)(=O)c2ccc(-n3nccn3)cc2)s1)C(F)(F)F)C(c1ccccc1)c1ccccc1` [Example 112] is 73.5 nM; for `COC(=O)N[C@H](C(=O)N[C@H](c1ccc([C@@H](CO)N(CCC(C)(C)C)S(=O)(=O)c2cccc3[nH]ccc23)s1)C(F)(F)F)C(c1ccccc1)c1ccccc1` [Example 59, N-[(1S)-1-(5-{(1R)-1-[(3,3-dimethylbutyl)(1H-indol-4-ylsulfonyl)amino]-2-hydroxyethyl}thiophen-2-yl)-2,2,2-trifluoroethyl]-Nα-(methoxycarbonyl)-β-phenyl-L-phenylalaninamide] it is 4.22 nM.
As for `COC(=O)N[C@H](C(=O)N[C@H](c1ccc([C@@H](CO)N(CCC(C)(C)C)S(=O)(=O)c2ccc(N)c(F)c2)s1)C(F)(F)F)C(c1ccccc1)c1ccccc1` [Example 97, N-[(1S)-1-{5-[(1R)-1-{[(4-amino-3-fluorophenyl)sulfonyl](3,3-dimethylbutyl)amino}-2-hydroxyethyl]thiophen-2-yl}-2,2,2-trifluoroethyl]-Nα-(methoxycarbonyl)-β-phenyl-L-phenylalaninamide], the IC50 amounted to 1.23 nM.
In the case of `CCN([C@H](CO)c1ccc([C@@H](NC(=O)[C@@H](NC(=O)OC)C(c2ccccc2)c2ccccc2)C(F)(F)F)s1)S(=O)(=O)c1ccc(N)cc1` [Example 62] it was 18.5 nM.
The figure for `COC(=O)N[C@H](C(=O)N[C@H](c1ccc([C@@H](CO)N(CCC(C)(C)C)S(=O)(=O)c2ccn3ccnc3c2)s1)C(F)(F)F)C(c1ccccc1)c1ccccc1` [Example 51, N-[(1S)-1-(5-{(1R)-1-[(3,3-dimethylbutyl)(imidazo[1,2-c]pyridin-7-ylsulfonyl)amino]-2-hydroxyethyl}thiophen-2-yl)-2,2,2-trifluoroethyl]-Nα-(methoxycarbonyl)-β-phenyl-L-phenylalaninamide] is 17.5 nM; for `COC(=O)N[C@H](C(=O)NCc1ccc([C@@H](CO)N(C(C)C)S(=O)(=O)c2ccc(N)cc2)s1)C(c1ccccc1)c1ccccc1` [Example 12] it is 18.8 nM; for `COC(=O)N[C@H](C(=O)N[C@H](c1ccc([C@@H](CO)N(CCC(C)(C)C)S(=O)(=O)c2ccc3scnc3c2)s1)C(F)(F)F)C(c1ccccc1)c1ccccc1` [Example 91, N-[(1S)-1-(5-{(1R)-1-[(1,3-benzothiazol-5-ylsulfonyl)(3,3-dimethylbutyl)amino]-2-hydroxyethyl}thiophen-2-yl)-2,2,2-trifluoroethyl]-Nα-(methoxycarbonyl)-β-phenyl-L-phenylalaninamide] it is 2.9 nM.
